The values below come from ChEMBL document CHEMBL1938369, “A small molecule inhibitor of p53-inducible protein phosphatase PPM1D” (Bioorg Med Chem Lett, 2012).

The source made the active and inactive calls. The rule behind the calls is not given here.

Assay [1] has as its target T1, Protein phosphatase 1D (Homo sapiens) (UniProt O15297).
T1 sequence (whole entry): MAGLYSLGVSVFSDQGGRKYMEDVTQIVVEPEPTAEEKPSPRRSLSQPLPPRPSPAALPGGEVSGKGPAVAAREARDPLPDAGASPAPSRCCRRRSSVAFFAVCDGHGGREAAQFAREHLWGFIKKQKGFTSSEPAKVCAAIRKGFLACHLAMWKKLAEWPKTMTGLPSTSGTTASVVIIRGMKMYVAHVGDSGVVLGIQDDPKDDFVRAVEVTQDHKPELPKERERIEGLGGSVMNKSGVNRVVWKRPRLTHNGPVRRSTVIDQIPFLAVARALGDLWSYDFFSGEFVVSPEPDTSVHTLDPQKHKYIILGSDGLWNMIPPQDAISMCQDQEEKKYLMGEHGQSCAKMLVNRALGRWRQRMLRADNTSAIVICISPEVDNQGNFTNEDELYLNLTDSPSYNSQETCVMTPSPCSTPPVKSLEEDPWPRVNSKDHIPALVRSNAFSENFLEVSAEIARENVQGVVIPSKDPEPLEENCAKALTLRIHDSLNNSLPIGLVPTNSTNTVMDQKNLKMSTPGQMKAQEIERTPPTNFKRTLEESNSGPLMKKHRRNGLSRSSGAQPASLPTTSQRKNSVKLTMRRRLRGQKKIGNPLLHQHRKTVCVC
In words: Inhibition of N-terminal histidine-tagged PPM1Dc at 4 uM after 10 mins by BIOMOL GREEN assay.

For assay [2], the system named is MCF7. Put plainly: Antiproliferative activity against human MCF7 cells overexpressing PPM1D at 40 uM after 1 to 5 days by trypan blue assay. The format is functional.
Assay [3] concerns MCF7. Put plainly: Induction of cell cycle arrest in human MCF7 cells assessed as accumulation at […] phase at 40 uM after 3 days by propidium iodide staining-based flow cytometry (reference value: 29.3 %). The format is functional. (In general: A flow cytometer gives signals particle by particle.)
Assay [4] deals with MCF7. In words: Induction of cell cycle arrest in human MCF7 cells assessed as accumulation at […] phase at 40 uM after 5 days by propidium iodide staining-based flow cytometry (reference value: 13.8 %). Format: functional.
Assay [5] has as its system MCF7. Put plainly: Induction of cell cycle arrest in human MCF7 cells assessed as accumulation at G2/M phase at 40 uM after 1 day by propidium iodide staining-based flow cytometry (reference value: 21.4 %). The format is functional.
Assay [6] relates to MCF7. In words: Induction of cell cycle arrest in human MCF7 cells assessed as accumulation at […] phase at 40 uM after 1 day by propidium iodide staining-based flow cytometry (reference value: 24 %). The format is functional.
For assay [7], the system named is MCF7. In words: Induction of cell cycle arrest in human MCF7 cells assessed as accumulation at Sub-G1 phase at 40 uM by propidium iodide staining-based flow cytometry. Format: functional. Particulars: TDE = time-dependent effect.
For assay [8], the system named is MCF7. In words: Induction of cell cycle arrest in human MCF7 cells assessed as accumulation at G2/M phase at 40 uM after 5 days by propidium iodide staining-based flow cytometry (reference value: 21.2 %). The format is functional.
The target of assay [9] is T2, Protein phosphatase 1A (Homo sapiens) (UniProt P35813).
T2 sequence (whole entry): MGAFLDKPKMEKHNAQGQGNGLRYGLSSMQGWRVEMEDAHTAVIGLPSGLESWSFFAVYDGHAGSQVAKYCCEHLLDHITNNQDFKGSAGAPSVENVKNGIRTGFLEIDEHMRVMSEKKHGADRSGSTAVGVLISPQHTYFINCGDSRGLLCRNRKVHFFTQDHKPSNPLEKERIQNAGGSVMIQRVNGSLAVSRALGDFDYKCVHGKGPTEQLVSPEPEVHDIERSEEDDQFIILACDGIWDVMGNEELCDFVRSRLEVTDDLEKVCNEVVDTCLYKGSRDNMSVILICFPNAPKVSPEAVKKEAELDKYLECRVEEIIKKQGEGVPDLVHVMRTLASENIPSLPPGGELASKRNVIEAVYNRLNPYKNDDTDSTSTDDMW
Put plainly: Inhibition of wild-type PPM1A expressed in BL21(DE3)pLysS cells at 40 uM after 10 mins by BIOMOL GREEN assay. Format: cell-based.

The next assay deals with T3, Protein phosphatase 1D (Homo sapiens, UniProt O15297).
T3 sequence (O15297 whole entry): T1 sequence (whole entry)
In words: Inhibition of N-terminal histidine-tagged PPM1Dc after 10 mins using BIOMOL GREEN assay.

In assay [10] the test system is MCF7. Put plainly: Increase in PPM1D protein expression in human MCF7 cells by Western blot analysis. Format: functional, cell-based. Background: In western blotting, separated proteins are transferred to a membrane and probed.
The subject of assay [11] is MCF7. In words: Induction of cell cycle arrest in human MCF7 cells assessed as accumulation at Sub-G1 phase at 40 uM after 3 days by propidium iodide staining-based flow cytometry (reference value: 9.4 %). Format: functional.
The test system of assay [12] is MCF7. Put plainly: Increase in PPM1D protein expression in human MCF7 cells at 10 uM after 24 hrs by immunofluorescence analysis. Format: functional, cell-based.
A short description of assay [13]: Inhibition of PP2A using Ac-DDEMT(P)GYVATR-NH2 as substrate at 40 uM after 10 mins by BIOMOL GREEN assay.
Assay [14] is described as follows: Selectivity ratio for PPM1Dc over PPM1A.
Assay [15] relates to MCF7. Put plainly: Induction of cell cycle arrest in human MCF7 cells assessed as accumulation at Sub-G1 phase at 40 uM after 5 days by propidium iodide staining-based flow cytometry (reference value: 8.1 %). The format is functional.
Assay [16] has as its system MCF7. Put plainly: Induction of cell cycle arrest in human MCF7 cells assessed as accumulation at G2/M phase at 40 uM after 3 days by propidium iodide staining-based flow cytometry (reference value: 22.9 %). The format is functional.
In assay [17] the test system is MCF7. Put plainly: Induction of cell cycle arrest in human MCF7 cells assessed as accumulation at G1 phase at 40 uM after 3 days by propidium iodide staining-based flow cytometry (reference value: 38.5 %). The format is functional.
Assay [18] deals with MCF7. In words: Induction of cell cycle arrest in human MCF7 cells assessed as increase in accumulation at Sub-G1 phase at 40 uM after 1 day by propidium iodide staining-based flow cytometry. Format: functional.
Another assay relates to A549. In words: Antiproliferative activity against human A549 cells at 40 uM after 1 to 5 days by trypan blue assay. The format is functional, cell-based.
For assay [19], the target named is T1, Protein phosphatase 1D (Homo sapiens). In words: Inhibition of PPM1D in human MCF7 cells assessed as increase in p53 phosphorylation at Ser15 by Western blot analysis. The format is cell-based.
Assay [20] relates to MCF7. Put plainly: Antiproliferative activity against human MCF7 cells overexpressing PPM1D after 1 to 5 days by trypan blue assay. Format: functional, cell-based.
For assay [21], the system named is MCF7. In words: Induction of cell cycle arrest in human MCF7 cells assessed as accumulation at G1 phase at 40 uM after 1 day by propidium iodide staining-based flow cytometry (reference value: 45.6 %). The format is functional.
Assay [22] deals with MCF7. In words: Induction of cell cycle arrest in human MCF7 cells assessed as accumulation at G1 phase at 40 uM after 5 days by propidium iodide staining-based flow cytometry (reference value: 57 %). The format is functional.
Assay [23] concerns the target T1, Protein phosphatase 1D (Homo sapiens). Put plainly: Inhibition of PPM1D in UV-irradiated human MCF7 cells assessed as increase in p53 phosphorylation at Ser15 measuring p53 protein level by Western blot analysis. Format: cell-based.

One may read the inhibition as the percentage by which the read-out fell short of the control. In general, IC50 refers to the concentration needed to halve the response being measured. A low value points to greater potency.

`C[C@H]1C[C@@H](O)[C@H]2C[C@H](O)[C@@H]3[C@](C)(CO)C[C@H](O)C[C@@]3(C)[C@@H]2C1`: the inhibition in assay [1] was determined as 6.3%. Also, the outcome in the assay with MCF7 [2] was inactive.
The compound `CC[Si](CC)(CC)O[C@@H]1C[C@H](C)C[C@@H]2[C@@H]1C[C@H](O[Si](C)(C)C(C)(C)C)[C@@H]1[C@](C)(CO)CC(=O)C[C@@]21C` had an inhibition in assay [1] of 79.4%.
As for `CC[Si](CC)(CC)O[C@@H]1C[C@H](C)C[C@@H]2[C@@H]1C[C@H](O[Si](C)(C)C(C)(C)C)[C@@H]1[C@](C)(CO)C[C@H](O)C[C@@]21C`, the Activity in the assay with MCF7 [3] was 16%; in the assay on MCF7 [4], 15%; with MCF7 [5], 16.8%; in the assay with MCF7 [6], 29.8%; in the assay on MCF7 [7], “tde”; with MCF7 [8] it was 12.9%. Also, the Activity in the assay on MCF7 [11] is listed as 16.4%; with MCF7 [15], 25.3%; with MCF7 [16], 28.2%; with MCF7 [17] it was 39.3%; with MCF7 [2] it was above 60%; with MCF7 [18], 5.3%. For the same compound, the Activity result is “Dose-dependent effect” with MCF7 [20], 39% in the assay with MCF7 [21] and 46.8% in the assay with MCF7 [22]. Also, the inhibition in [1] was 97.1%; in assay [9], 68%; in assay [13], 11%. At Protein phosphatase 1D, this compound had an IC50 of 480 nM. Besides, the outcome with MCF7 [10] and in the assay on MCF7 [12] was Active. Also, the Selectivity ratio in assay [14] was determined as 50. In addition, in the assay with A549, the result was inactive. Moreover, the inhibition entry in assay [19] and in [23] was “Active” throughout.
For `C[C@H]1C[C@@H](O)[C@H]2C[C@H](O[Si](C)(C)C(C)(C)C)[C@@H]3[C@](C)(CO)C[C@H](O)C[C@@]3(C)[C@@H]2C1`, the inhibition in [1] turned out to be 25.1%.
With `CC[Si](CC)(CC)O[C@@H]1C[C@H](C)C[C@@H]2[C@@H]1C[C@H](O[Si](C)(C)C(C)(C)C)[C@H]1[C@@]2(C)C[C@@H]2C[C@@]1(C)C(O)O2` (stereo not given in full), in [1], the inhibition came out at 87.1%.
